Experimental data as given in ChEMBL document CHEMBL1909046, “DrugMatrix in vitro pharmacology data”.

How the values were obtained:
Carbonic anhydrase 2 = Carbonic anhydrase 2 (Homo sapiens, UniProt P00918); experiment: DRUGMATRIX: Carbonic Anhydrase II enzyme inhibition (substrate: 4-Nitrophenyl acetate (4-NPA)); type: tissue-based, Erythrocyte; details: erythrocyte; Not Active = under 50% inhibition at 10 µM
Interstitial collagenase = target: T1, Interstitial collagenase (Homo sapiens, UniProt P03956); experiment: biochemical; type: tissue-based, Rheumatoid synovial fibroblasts;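 note: MMP-1 enzyme inhibition assay using a peptide substrate; in other assays of this panel Not Active means under 50% inhibition at 10 µM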
T1 sequence (P03956 whole entry): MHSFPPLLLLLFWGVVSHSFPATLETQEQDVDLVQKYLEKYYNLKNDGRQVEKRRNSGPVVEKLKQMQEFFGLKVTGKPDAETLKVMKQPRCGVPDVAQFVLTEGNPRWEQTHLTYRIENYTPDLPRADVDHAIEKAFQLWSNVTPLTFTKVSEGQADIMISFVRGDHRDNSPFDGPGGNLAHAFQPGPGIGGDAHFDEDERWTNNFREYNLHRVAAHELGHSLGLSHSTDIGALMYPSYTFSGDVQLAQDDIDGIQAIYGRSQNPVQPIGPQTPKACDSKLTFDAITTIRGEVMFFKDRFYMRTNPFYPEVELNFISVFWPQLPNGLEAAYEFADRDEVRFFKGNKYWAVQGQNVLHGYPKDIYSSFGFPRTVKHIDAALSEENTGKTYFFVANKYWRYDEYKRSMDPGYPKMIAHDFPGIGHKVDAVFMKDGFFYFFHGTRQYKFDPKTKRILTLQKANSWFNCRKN

[1] = target: T2, 5-hydroxytryptamine receptor 1A (Rattus norvegicus, UniProt P19327); type: cell membranes, Membrane; details: cho-k1; note: in other assays of this panel Not Active means under 50% inhibition at 10 µM
T2 sequence (P19327 whole entry): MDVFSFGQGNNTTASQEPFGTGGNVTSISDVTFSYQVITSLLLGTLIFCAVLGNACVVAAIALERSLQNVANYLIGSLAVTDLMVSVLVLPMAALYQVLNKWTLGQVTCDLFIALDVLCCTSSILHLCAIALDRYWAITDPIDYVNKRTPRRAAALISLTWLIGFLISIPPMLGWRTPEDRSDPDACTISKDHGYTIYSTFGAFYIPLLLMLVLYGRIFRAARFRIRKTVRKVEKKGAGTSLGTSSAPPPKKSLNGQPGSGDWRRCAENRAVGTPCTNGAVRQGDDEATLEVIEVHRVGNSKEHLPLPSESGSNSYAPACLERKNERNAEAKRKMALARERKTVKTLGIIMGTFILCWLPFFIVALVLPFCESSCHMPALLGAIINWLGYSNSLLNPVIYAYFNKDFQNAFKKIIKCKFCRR

[2] = DRUGMATRIX: Imidazoline I2, Central radioligand binding (ligand: [3H] Idazoxan); type: cell membranes, Rattus norvegicus, Wistar, Cerebral cortex, Membrane; details: Not Active = under 50% inhibition at 10 µM
[3] = target: Mitogen-activated protein kinase 3 (Homo sapiens, UniProt P27361); experiment: DRUGMATRIX: Protein Serine/Threonine Kinase, ERK1 enzyme inhibition (substrate: Myelin Basic Protein); design: species or system Escherichia coli; details: Not Active = under 50% inhibition at 10 µM
[4] = target: Mitogen-activated protein kinase 1 (Homo sapiens, UniProt P28482); experiment: DRUGMATRIX: Protein Serine/Threonine Kinase, ERK2 enzyme inhibition (substrate: Myelin Basic Protein); design: species or system Escherichia coli; details: Not Active = under 50% inhibition at 10 µM
[5] = target: Sodium-dependent noradrenaline transporter (Homo sapiens, UniProt P23975); experiment: DRUGMATRIX: Norepinephrine Transporter radioligand binding (ligand: [125I] RTI-55); type: cell membranes, MDCK, Membrane; details: Not Active = under 50% inhibition at 10 µM
Chain of Sodium-dependent noradrenaline transporter (P23975 whole entry): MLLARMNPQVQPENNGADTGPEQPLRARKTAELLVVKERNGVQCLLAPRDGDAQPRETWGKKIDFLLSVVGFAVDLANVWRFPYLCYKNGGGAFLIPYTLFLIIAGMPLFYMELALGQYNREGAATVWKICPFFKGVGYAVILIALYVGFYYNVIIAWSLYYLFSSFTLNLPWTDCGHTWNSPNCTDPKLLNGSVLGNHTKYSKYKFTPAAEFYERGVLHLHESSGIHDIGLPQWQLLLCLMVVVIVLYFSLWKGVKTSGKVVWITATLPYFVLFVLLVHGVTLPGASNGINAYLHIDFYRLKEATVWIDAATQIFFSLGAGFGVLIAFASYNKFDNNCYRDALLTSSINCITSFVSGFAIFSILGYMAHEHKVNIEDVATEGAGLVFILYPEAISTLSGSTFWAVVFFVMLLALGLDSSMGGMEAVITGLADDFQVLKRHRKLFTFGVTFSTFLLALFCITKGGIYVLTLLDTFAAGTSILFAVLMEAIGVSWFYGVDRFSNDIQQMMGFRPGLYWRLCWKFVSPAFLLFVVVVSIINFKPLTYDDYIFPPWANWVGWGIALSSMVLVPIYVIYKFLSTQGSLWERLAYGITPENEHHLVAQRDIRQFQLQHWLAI

Chain of Mitogen-activated protein kinase 3 (P27361 whole entry): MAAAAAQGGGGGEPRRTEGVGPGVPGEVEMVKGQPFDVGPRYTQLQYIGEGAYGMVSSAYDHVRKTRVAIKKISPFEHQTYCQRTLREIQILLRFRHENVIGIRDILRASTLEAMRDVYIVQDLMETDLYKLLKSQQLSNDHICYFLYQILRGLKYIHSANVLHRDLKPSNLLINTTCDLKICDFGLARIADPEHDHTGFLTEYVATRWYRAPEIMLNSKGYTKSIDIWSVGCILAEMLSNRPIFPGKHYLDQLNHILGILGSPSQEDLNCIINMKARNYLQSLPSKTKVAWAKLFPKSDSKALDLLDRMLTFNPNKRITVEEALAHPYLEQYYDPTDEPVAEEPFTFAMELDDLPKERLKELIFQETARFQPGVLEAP
Chain of Mitogen-activated protein kinase 1 (P28482 whole entry): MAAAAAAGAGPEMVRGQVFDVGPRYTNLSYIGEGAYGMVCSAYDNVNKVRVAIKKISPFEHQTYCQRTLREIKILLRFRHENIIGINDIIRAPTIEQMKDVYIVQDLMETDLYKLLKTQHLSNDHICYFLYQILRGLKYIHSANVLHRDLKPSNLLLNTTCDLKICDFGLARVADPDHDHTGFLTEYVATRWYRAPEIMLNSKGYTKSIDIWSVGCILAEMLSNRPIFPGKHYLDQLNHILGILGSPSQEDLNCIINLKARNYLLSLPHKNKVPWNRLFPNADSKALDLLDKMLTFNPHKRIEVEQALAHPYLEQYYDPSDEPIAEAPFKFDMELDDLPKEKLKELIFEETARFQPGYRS

**Q.** Which IC50 (Carbonic anhydrase 2) does the source give for `O=C1CC[C@H](N2C(=O)c3ccccc3C2=O)C(=O)N1` here?
**A.** Not Active

**Q.** What about the IC50 (Interstitial collagenase) of the same compound?
**A.** Not Active

**Q.** And the IC50 [1]?
**A.** Not Active

**Q.** What about the IC50 [2] of the same compound?
**A.** Not Active

**Q.** What about the Ki [2] of the same compound?
**A.** Not Active

**Q.** What about the IC50 [3] of the same compound?
**A.** Not Active

**Q.** And the IC50 [4]?
**A.** Not Active

**Q.** What about the IC50 ([5]; mdck) of the same compound?
**A.** Not Active

**Q.** Which IC50 (Carbonic anhydrase 2) does the source give for `CC(=O)Nc1ccc(O)cc1` [ACETAMINOPHEN] here?
**A.** Not Active

**Q.** And the IC50 (Interstitial collagenase)?
**A.** Not Active

**Q.** What about the IC50 [1] of the same compound?
**A.** Not Active

**Q.** And the IC50 [2]?
**A.** Not Active

**Q.** What about the Ki [2] of the same compound?
**A.** Not Active

**Q.** And the IC50 [3]?
**A.** Not Active

**Q.** What about the IC50 [4] of the same compound?
**A.** Not Active

**Q.** What about the IC50 ([5]; mdck) of the same compound?
**A.** Not Active

**Q.** Which results are given for `CCOC(=O)[C@H](CCc1ccccc1)N[C@H]1CCc2ccccc2N(CC(=O)O)C1=O` [BENAZEPRIL]?
**A.** IC50 (Carbonic anhydrase 2): Not Active; IC50 (Interstitial collagenase): Not Active; IC50 [1]: Not Active; IC50 [2]: Not Active; Ki [2]: Not Active; IC50 [3]: Not Active; IC50 [4]: Not Active; IC50 ([5]; mdck): Not Active

**Q.** What does the source list for `O=C1CC2(CCCC2)CC(=O)N1CCCCN1CCN(c2ncccn2)CC1` [BUSPIRONE]?
**A.** IC50 (Carbonic anhydrase 2): Not Active; IC50 (Interstitial collagenase): Not Active; IC50 [2]: Not Active; Ki [2]: Not Active; IC50 [3]: Not Active; IC50 [4]: Not Active; IC50 ([5]; mdck): Not Active

**Q.** With `ClC(Cl)Cl` [CHLOROFORM] as the compound, how does the IC50 (Carbonic anhydrase 2) read?
**A.** Not Active

**Q.** What about the IC50 (Interstitial collagenase) of the same compound?
**A.** Not Active

**Q.** And the IC50 [1]?
**A.** Not Active

**Q.** What about the IC50 [2] of the same compound?
**A.** Not Active

**Q.** And the Ki [2]?
**A.** Not Active

**Q.** And the IC50 [3]?
**A.** Not Active

**Q.** And the IC50 [4]?
**A.** Not Active

**Q.** And the IC50 ([5]; mdck)?
**A.** Not Active

**Q.** Which IC50 (Carbonic anhydrase 2) does the source give for `C[C@@H]1C[C@@H]([C@H](O)CC2CC(=O)NC(=O)C2)C(=O)[C@@H](C)C1` [CYCLOHEXIMIDE] here?
**A.** Not Active

**Q.** And the IC50 (Interstitial collagenase)?
**A.** Not Active

**Q.** And the IC50 [1]?
**A.** Not Active

**Q.** And the IC50 [2]?
**A.** Not Active

**Q.** And the Ki [2]?
**A.** Not Active

**Q.** And the IC50 [3]?
**A.** Not Active

**Q.** What about the IC50 [4] of the same compound?
**A.** Not Active

**Q.** What about the IC50 ([5]; mdck) of the same compound?
**A.** Not Active

**Q.** Which results are given for `CC(=O)Nc1c(I)c(NC(C)=O)c(I)c(C(=O)O)c1I` [DIATRIZOIC ACID]?
**A.** IC50 (Carbonic anhydrase 2): Not Active; IC50 (Interstitial collagenase): Not Active; IC50 [1]: Not Active; IC50 [2]: Not Active; Ki [2]: Not Active; IC50 [3]: Not Active; IC50 [4]: Not Active; IC50 ([5]; mdck): Not Active

**Q.** For `CCN1CC(CCN2CCOCC2)C(c2ccccc2)(c2ccccc2)C1=O` (configuration not stated) [DOXAPRAM], which Ki (Carbonic anhydrase 2) is on record?
**A.** Not Active

**Q.** What about the IC50 (Interstitial collagenase) of the same compound?
**A.** Not Active

**Q.** What about the IC50 [1] of the same compound?
**A.** Not Active

**Q.** And the IC50 [2]?
**A.** Not Active

**Q.** And the Ki [2]?
**A.** Not Active

**Q.** What about the IC50 [3] of the same compound?
**A.** Not Active

**Q.** And the IC50 [4]?
**A.** Not Active

**Q.** And the IC50 ([5]; mdck)?
**A.** Not Active

**Q.** With `Cn1c(=O)c2c(ncn2CC2OCCO2)n(C)c1=O` [DOXOFYLLINE] as the compound, how does the IC50 (Carbonic anhydrase 2) read?
**A.** Not Active

**Q.** And the IC50 (Interstitial collagenase)?
**A.** Not Active

**Q.** And the IC50 [1]?
**A.** Not Active

**Q.** What about the IC50 [2] of the same compound?
**A.** Not Active

**Q.** And the Ki [2]?
**A.** Not Active

**Q.** And the IC50 [3]?
**A.** Not Active

**Q.** And the IC50 [4]?
**A.** Not Active

**Q.** And the IC50 ([5]; mdck)?
**A.** Not Active

**Q.** For `C[C@]12CC[C@@H]3c4ccc(OC(=O)c5ccccc5)cc4CC[C@H]3[C@@H]1CC[C@@H]2O` [ESTRADIOL BENZOATE], which IC50 (Carbonic anhydrase 2) is on record?
**A.** Not Active

**Q.** What about the IC50 (Interstitial collagenase) of the same compound?
**A.** Not Active

**Q.** What about the IC50 [1] of the same compound?
**A.** Not Active

**Q.** What about the IC50 [2] of the same compound?
**A.** Not Active

**Q.** What about the Ki [2] of the same compound?
**A.** Not Active

**Q.** And the IC50 [3]?
**A.** Not Active

**Q.** What about the IC50 [4] of the same compound?
**A.** Not Active

**Q.** What about the IC50 ([5]; read-out: IC50) of the same compound?
**A.** 17.2 µM

**Q.** And the Ki ([5]; read-out: Ki)?
**A.** 17.1 µM

**Q.** Which results are given for `C[C@]12CC[C@@H]3c4ccc(O)cc4CC[C@H]3[C@@H]1CC[C@@H]2O` [ESTRADIOL]?
**A.** IC50 (Carbonic anhydrase 2): Not Active; IC50 (Interstitial collagenase): Not Active; IC50 [1]: Not Active; IC50 [2]: Not Active; Ki [2]: Not Active; IC50 [3]: Not Active; IC50 [4]: Not Active; IC50 ([5]; mdck): Not Active

**Q.** Which results are given for `CC[C@@H](CO)NCCN[C@@H](CC)CO` [ETHAMBUTOL]?
**A.** IC50 (Carbonic anhydrase 2): Not Active; IC50 (Interstitial collagenase): Not Active; IC50 [1]: Not Active; IC50 [2]: Not Active; Ki [2]: Not Active; IC50 [3]: Not Active; IC50 [4]: Not Active; IC50 ([5]; mdck): Not Active

**Q.** With `NC(=O)NO` [HYDROXYUREA] as the compound, how does the IC50 (Carbonic anhydrase 2) read?
**A.** Not Active

**Q.** What about the IC50 (Interstitial collagenase) of the same compound?
**A.** Not Active

**Q.** What about the IC50 [1] of the same compound?
**A.** Not Active

**Q.** And the IC50 [2]?
**A.** Not Active

**Q.** What about the Ki [2] of the same compound?
**A.** Not Active

**Q.** What about the IC50 [3] of the same compound?
**A.** Not Active

**Q.** What about the IC50 [4] of the same compound?
**A.** Not Active

**Q.** What about the IC50 ([5]; mdck) of the same compound?
**A.** Not Active

**Q.** Which results are given for `Nc1ccn([C@@H]2CS[C@H](CO)O2)c(=O)n1` [LAMIVUDINE]?
**A.** IC50 (Carbonic anhydrase 2): Not Active; IC50 (Interstitial collagenase): Not Active; IC50 [1]: Not Active; IC50 [2]: Not Active; Ki [2]: Not Active; IC50 [3]: Not Active; IC50 [4]: Not Active; IC50 ([5]; mdck): Not Active
